Measured values published in patent US7674580B2, “Compositions and methods for the modulation of sphingolipid metabolism and/or signaling” (priority 2002, dated 2010).
Marks after values point to notes of the source that are not given here.

Legend:
[1] = tested on: Sply^05091 homozygous flies; experiment: Adult flight performance of Sply^05091 homozygous flies grown on sphingosine kinase inhibitor; assay type: in vivo, Drosophila melanogaster
[2] = tested on: wild type flies; experiment: LCBP levels in wild type flies grown on sphingosine kinase inhibitor; assay type: in vivo, Drosophila melanogaster; conditions: wild type flies grown on D,L-threo-DHS
Protocol: (§1) Analysis of Drosophila sphingolipids: 100 mg of flies were homogenized in 6 ml of ice cold methanol/water 1:1 (vol:vol) with a Potter-Elvehjem homogenizer with a loose pestle followed by a tight pestle until the pestle moved smoothly. Extract was further homogenized by tip sonication for 3 times 20 sec. Extract was spun at low speed and supernatant was removed and dried down in speed vac. Extract was resuspended in 500 μl of methanol containing 0.1M ammonium hydroxide and incubated for 1 hour at 37° C. Following incubation the extract was dried down in speed vac. Extract was resuspended in 500 μl of 50% methanol containing 0.1% glacial acetic acid and applied to a C18E STRATA solid phase extraction column. C18E STRATA column was washed with 50% methanol containing 0.1% glacial acetic acid followed by a wash with 100% methanol containing 0.1% glacial acetic acid. Lipids of interest were eluted with methanol/10 mM ammonium acetate, 9:1 (vol:vol). Lipids were dried down in speed vac. and o-pthaladehyde labeled for HPLC analysis as previously described (Kim, S., Fyrst, H. and Saba, J. (2000). Genetics 156, 1519-29.).

[3] = tested on: Sply^05091 homozygous flies; experiment: LCB/LCBP levels in Sply^05091 homozygous flies grown on sphingosine kinase inhibitor (HPLC); assay type: in vivo, Drosophila melanogaster
Protocol: as §1

[4] = tested on: wildtype cells; experiment: Sphingosine sensitivity (growth) of wildtype yeast; assay type: cell-based, S. cerevisiae; conditions: 10 μM sphingosine
Protocol: (§2) A further test for SPL activity may be based upon functional complementation in the bst1Δ strain. It has been found, within the context of the present invention, that bst1Δ cells are highly sensitive to D-erythro-sphingosine.
Functional complementation in yeast: Strains of interest were grown to saturation in liquid culture for 2-3 days. They were then resuspended in minimal medium, placed in the first row of a 96-well plate and diluted serially from 1:2 to 1:4000 across the plate. […] Louis, Mo.). […] At this concentration of NP40, no effects on cell viability are observed. Plates were incubated at 30° C. for two days and assessed visually for differences in growth.

[5] = tested on: bst1Δ cells; experiment: Sphingosine sensitivity (growth) of SPL-deleted yeast; assay type: cell-based, S. cerevisiae
Description: Within certain embodiments, an in vitro assay for SPL activity may be performed using cellular extracts prepared from cells that express the polypeptide of interest. […] It has been found, within the context of the present invention, that yeast cells containing deletion of the SPL gene (BST1) are suitable for use in evaluating the SPL activity of a polypeptide. bst1Δ cells can be generated from S. cerevisiae using standard techniques, such as PCR, as described herein. […] For such a test, a polypeptide is preferably expressed on a high-copy yeast vector (such as pYES2, which is available from Invitrogen) yielding more than 20 copies of the gene per cell. In general, a polypeptide has SPL activity if, when expressed using such a vector in a bst1Δ cell, a cellular extract results in a two-fold increase in substrate degradation over the level observed for an extract prepared from cells not expressing the polypeptide.
as §2
Functional complementation in yeast: Strains of interest were grown to saturation in liquid culture for 2-3 days. […] Plates were incubated at 30° C. for two days and assessed visually for differences in growth.

[6] = Sply^05091 homozygous flies + 1 mM D,L-threo-DHS, separate experiment, mixed-age adults

Structure (SMILES) | Average flight score ([1]; Sply^05091 + 1 mM D,L-threo-DHS, score upward=3, lateral=2, downward=1, flightless=0, ±s.e.m., untreated Sply^05091 0.40 ± 0.036) | Flight performance ([1]; Sply^05091 mutants grown on media supplemented with 10 μM D,L-threo-DHS, F2 progeny) | LCBP levels, % of normal levels [2] | Reduction of LCBP levels ([3]; Sply^05091 homozygotes grown in the presence of sphingosine kinase inhibitor) | C14/16 LCBPs, percentage of untreated controls [3, 6] | C14/16 LCBs, percentage of untreated controls [3, 6] | Growth of wildtype cells [4] | Growth of bst1Δ cells ([5]; concentrations as low as 10 μM sphingosine) | Proliferation of dpl1Δ strain ([5]; media containing low concentrations of D-erythro-sphingosine)
CCCCCCCCCCCCCCC[C@H](O)[C@@H](N)CO [D,L-threo-DHS, D,L-threo-dihydrosphingosine] | 0.62 ± 0.057 | slight but significant improvement in flight performance | 20% | approximately 20% | 81%* | 136%* |  |  | 
CCCCCCCCCCCCC/C=C/[C@@H](O)[C@@H](N)CO [D-erythro-sphingosine] |  |  |  |  |  |  | no effect on the growth | completely inhibit the growth | cannot proliferate
